Activity calls are given as the source filed them.
Columns and labels:
[1] = test system: BJ; test: cytotoxicity toward BJ-TERT fibroblasts, dose response, cell-based, RAS-independent, luminescence (AID 1933); format: functional; conditions: Homo sapiens
[2] = test system: BJ; test: cells; format: functional, cell-based; conditions: Homo sapiens
[3] = test system: BJ; test: cytotoxicity toward BJ-TERT-LT-ST fibroblasts, dose response, cell-based, RAS-independent, luminescence (AID 1935); format: functional; conditions: Homo sapiens;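 further: BJ fibroblasts immortalized with TERT plus LT and ST oncogenes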
[4] = cytotoxicity toward DRD oncogenic fibroblasts, dose response, cell-based, non-viral oncogenic, luminescence (AID 1934); format: functional; conditions: Homo sapiens
[5] = target: Galanin receptor type 3 (Homo sapiens, UniProt O60755); test: Fluorescence-based cell-based primary high throughput dose response assay to identify antagonists of the Galanin Receptor 3 (GalR3).; format: functional
[6] = cells; format: functional, cell-based; conditions: HEK-CNG
[7] = target: COUP transcription factor 2 (Homo sapiens, UniProt P24468); test: Luminescence-based cell-based high throughput dose response assay to identify inhibitors of COUP-TFII (NR2F2).; format: functional;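 further: HEK293 cells transiently cotransfected with COUP-TFII expression vector and reporter; luciferase reporter luminescence driven by COUP-TFII from the pX2-168 reporter plasmid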
[8] = target: T1, Microphthalmia-associated transcription factor (Homo sapiens, UniProt O75030); test: TRPM1 promoter luciferase signal decrease, dose response, MITF inhibitor project, cell-based, SK-MEL-5, cherry-picked, set 3 (AID 493073); format: functional
T1 sequence (O75030 whole entry): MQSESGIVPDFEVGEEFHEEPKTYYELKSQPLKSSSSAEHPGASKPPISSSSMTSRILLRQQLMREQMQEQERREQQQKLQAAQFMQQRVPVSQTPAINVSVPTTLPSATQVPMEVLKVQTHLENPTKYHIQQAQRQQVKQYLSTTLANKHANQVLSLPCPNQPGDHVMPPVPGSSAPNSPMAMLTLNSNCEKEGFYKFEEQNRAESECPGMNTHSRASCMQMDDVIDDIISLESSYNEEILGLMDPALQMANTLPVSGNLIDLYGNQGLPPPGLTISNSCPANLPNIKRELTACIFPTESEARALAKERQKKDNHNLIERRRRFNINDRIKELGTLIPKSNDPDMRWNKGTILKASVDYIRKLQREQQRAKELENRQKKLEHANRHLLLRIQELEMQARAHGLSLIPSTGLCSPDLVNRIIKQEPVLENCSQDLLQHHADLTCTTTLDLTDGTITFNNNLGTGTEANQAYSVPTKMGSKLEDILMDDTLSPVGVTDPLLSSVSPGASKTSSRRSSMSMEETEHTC

[9] = Fluorescence-based cell-based high throughput dose response assay for inhibitors of the interaction of nucleotide-binding oligomerization domain containing 2 (NOD2) and the receptor-interacting serine-threonine kinase 2 (RIPK2).; format: functional; conditions: Homo sapiens
[10] = target: Paired box protein Pax-8 (Homo sapiens, UniProt Q06710); test: inhibitors of PAX8-driven TPO luciferase reporter, dose response, RMG-I cells, cherry-pick (AID 687027); format: functional, cell-based;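 further: luciferase reporter driven by Pax8 target thyroperoxidase promoter measured by SteadyGlo luminescence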
[11] = inhibitors of PGC1a acetylation in cells, dose response, cell-based, cherry-picked samples (AID 720514); format: functional;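 further: potency may reflect raised or lowered acetylation signal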
[12] = microbe, parasite or virus in culture; format: functional; conditions: Mycobacterium tuberculosis
[13] = Luminescence Cell-Based Dose Retest to Confirm Inhibitors of Cancer Stem Cells. [Related pubchem assays (depositor defined):AID2717, AID2721]; format: functional; conditions: Homo sapiens
[14] = test system: INS1; test: beta cell apoptosis inhibitors, cytokine rescue, dose response, luminescence, retest (AID 449756); format: functional, cell-based; conditions: Rattus norvegicus;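 further: cell death triggered by IL-1 beta plus TNF-alpha plus IFN-gamma mixture; protective hits raise ATP signal compared with cytokine alone wells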
[15] = A549 cell cytotoxicity, dose response, cytotoxicity control, plate reader, cherry-pick, antagonist series (AID 743412); format: functional, cell-based
[16] = HepG2 cell cytotoxicity, dose response, cytotoxicity control, plate reader, cherry-pick, antagonist series (AID 743416); format: functional, cell-based
[17] = LGR2 antagonists, dose response, cell-based, HEK293, CRE-luciferase reporter, cherry pick, set 2 (AID 743343); format: functional;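 further: transfected cells were stimulated with diluted bursicon conditioned medium after compound addition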
[18] = MC4R antagonists, dose response, counter-screen for LGR2 antagonist project, cell-based, plate reader, cherry pick (AID 743444); format: functional;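 further: transfected HEK 293 cells stimulated with alpha-MSH peptide; potency of inhibitors of the alpha-MSH evoked signal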
[19] = HEK293 cell cytotoxicity, dose response, cytotoxicity control, plate reader, cherry-picked samples (AID 743446); format: functional, cell-based
[20] = target: T2, Sentrin-specific protease 8 (Homo sapiens, UniProt Q96LD8); format: functional
T2 sequence (Q96LD8 whole entry): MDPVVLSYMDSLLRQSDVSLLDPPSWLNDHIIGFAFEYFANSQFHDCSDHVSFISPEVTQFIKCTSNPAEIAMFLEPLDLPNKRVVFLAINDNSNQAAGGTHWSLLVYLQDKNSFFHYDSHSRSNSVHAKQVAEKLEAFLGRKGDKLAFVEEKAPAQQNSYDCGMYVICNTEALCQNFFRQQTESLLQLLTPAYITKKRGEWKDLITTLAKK

[21] = target: T2, Sentrin-specific protease 8; format: functional; remark: listed apart in the source
[22] = target: T3, Caspase-6 (Homo sapiens, UniProt P55212); test: human caspase-6 inhibitors, dose response, biochemical, VEID-R110 fluorescence, cherry-pick (AID 720632)
T3 sequence (P55212 whole entry): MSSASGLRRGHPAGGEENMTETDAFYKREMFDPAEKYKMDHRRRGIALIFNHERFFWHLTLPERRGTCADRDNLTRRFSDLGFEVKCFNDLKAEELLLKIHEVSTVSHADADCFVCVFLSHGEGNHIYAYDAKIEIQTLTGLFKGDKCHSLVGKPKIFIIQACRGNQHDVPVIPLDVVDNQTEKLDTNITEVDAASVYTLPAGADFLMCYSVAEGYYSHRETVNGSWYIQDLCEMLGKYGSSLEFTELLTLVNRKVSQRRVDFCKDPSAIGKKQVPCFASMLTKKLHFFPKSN

[23] = target: T4, Caspase-9 (Homo sapiens, UniProt P55211); test: caspase-9 enzyme inhibition, dose response, selectivity assay for caspase-6 inhibitor project, biochemical, fluorescence, plate reader, cherry-picked samples (AID 743293)
T4 sequence (P55211 whole entry): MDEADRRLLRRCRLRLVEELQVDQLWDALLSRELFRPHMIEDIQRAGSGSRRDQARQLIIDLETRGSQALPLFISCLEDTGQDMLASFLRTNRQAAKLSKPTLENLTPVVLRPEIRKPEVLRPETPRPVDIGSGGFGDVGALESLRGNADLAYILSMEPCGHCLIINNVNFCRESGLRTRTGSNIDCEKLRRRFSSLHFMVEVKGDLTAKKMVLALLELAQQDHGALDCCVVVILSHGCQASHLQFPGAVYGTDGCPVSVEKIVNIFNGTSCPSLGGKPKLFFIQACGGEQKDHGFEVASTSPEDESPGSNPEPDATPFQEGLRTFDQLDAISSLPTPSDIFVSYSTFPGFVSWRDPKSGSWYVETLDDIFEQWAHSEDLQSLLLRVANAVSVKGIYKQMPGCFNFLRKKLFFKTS

[24] = target: T5, Histone-lysine N-methyltransferase NSD2 (Homo sapiens, UniProt O96028); format: biochemical
T5 sequence (O96028 whole entry): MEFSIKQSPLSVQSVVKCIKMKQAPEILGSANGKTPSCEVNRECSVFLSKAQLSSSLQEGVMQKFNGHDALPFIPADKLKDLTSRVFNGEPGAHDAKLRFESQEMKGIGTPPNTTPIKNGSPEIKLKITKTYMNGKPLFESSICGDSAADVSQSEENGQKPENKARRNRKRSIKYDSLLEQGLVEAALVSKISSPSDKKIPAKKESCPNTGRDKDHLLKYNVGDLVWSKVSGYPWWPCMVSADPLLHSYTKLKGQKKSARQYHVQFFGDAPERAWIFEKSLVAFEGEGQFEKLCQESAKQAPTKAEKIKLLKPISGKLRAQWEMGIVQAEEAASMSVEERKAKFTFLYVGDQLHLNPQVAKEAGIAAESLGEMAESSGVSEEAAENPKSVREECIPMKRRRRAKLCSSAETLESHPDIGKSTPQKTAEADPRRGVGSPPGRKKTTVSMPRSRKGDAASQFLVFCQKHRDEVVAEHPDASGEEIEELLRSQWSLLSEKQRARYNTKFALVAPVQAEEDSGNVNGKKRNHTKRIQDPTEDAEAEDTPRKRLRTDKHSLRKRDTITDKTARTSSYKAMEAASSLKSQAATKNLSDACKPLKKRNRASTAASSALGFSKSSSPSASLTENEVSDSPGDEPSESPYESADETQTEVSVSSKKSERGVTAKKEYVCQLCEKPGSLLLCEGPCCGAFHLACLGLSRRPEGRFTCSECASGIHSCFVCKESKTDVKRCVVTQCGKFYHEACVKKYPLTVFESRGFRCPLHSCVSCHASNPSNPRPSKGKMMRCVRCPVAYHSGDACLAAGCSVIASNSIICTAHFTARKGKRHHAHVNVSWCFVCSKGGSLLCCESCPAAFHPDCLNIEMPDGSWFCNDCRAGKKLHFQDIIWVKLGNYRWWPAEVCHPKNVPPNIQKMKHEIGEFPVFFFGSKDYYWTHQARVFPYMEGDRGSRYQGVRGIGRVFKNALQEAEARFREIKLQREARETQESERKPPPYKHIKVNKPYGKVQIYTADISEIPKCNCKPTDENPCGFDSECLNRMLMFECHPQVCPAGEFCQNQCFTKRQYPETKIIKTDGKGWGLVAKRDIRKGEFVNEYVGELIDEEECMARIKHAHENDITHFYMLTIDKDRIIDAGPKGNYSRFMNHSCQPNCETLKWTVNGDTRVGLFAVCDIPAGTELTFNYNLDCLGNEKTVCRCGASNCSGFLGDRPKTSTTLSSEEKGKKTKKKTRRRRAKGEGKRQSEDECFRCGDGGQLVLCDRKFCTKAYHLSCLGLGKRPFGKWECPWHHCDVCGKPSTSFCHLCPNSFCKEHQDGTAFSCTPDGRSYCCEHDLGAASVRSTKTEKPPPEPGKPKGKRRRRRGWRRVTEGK

[25] = target: Caspase-7 (Homo sapiens, UniProt P55210); test: human caspase-7 inhibitors, dose response, selectivity assay for caspase-6 inhibitor project, biochemical, DEVD-R110 fluorescence, cherry-pick (AID 743295)
[26] = target: Caspase-8 (Homo sapiens, UniProt Q14790); test: caspase-8 inhibition counter-screen, dose response, selectivity assay for caspase-6 inhibitor project, biochemical, Z-IETD-R110 fluorescence, cherry-picked samples (AID 743294)
[27] = target: T6, Caspase-3 (Homo sapiens, UniProt P42574); test: caspase-3 enzyme inhibitors, selectivity check, dose response, selectivity assay for caspase-6 allosteric inhibitor project, biochemical, fluorescence, cherry-picked samples (AID 743291)
T6 sequence (P42574 whole entry): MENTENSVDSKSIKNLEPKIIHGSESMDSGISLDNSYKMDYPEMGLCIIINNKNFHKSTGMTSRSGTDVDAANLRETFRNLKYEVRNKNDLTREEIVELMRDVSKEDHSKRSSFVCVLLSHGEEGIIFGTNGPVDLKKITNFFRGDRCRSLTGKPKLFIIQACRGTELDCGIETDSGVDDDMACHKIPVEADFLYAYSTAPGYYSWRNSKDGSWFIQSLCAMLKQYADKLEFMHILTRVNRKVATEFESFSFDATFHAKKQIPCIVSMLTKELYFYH

Chain of Paired box protein Pax-8 (Q06710 whole entry): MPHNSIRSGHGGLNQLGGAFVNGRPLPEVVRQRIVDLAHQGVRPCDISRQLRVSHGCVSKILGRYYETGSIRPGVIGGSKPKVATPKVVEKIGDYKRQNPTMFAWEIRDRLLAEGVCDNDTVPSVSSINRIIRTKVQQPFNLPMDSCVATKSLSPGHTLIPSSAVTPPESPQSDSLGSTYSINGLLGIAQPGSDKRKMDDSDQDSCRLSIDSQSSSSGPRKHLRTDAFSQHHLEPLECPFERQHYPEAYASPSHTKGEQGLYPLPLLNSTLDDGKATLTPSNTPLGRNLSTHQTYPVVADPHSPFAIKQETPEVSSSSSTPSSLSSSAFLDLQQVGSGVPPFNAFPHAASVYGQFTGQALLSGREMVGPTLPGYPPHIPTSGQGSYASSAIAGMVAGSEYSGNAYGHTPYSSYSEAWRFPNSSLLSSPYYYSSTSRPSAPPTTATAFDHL
Chain of Caspase-8 (Q14790 217-374 limits assumed): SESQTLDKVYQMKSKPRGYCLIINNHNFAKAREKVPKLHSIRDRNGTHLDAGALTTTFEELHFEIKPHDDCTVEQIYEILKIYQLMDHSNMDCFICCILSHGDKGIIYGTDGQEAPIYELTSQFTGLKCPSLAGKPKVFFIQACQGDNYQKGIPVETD
Chain of Caspase-8 (Q14790 385-479 limits assumed): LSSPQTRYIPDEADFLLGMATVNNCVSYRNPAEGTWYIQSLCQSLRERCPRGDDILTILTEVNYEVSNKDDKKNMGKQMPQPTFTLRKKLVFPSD
Chain of COUP transcription factor 2 (P24468 whole entry): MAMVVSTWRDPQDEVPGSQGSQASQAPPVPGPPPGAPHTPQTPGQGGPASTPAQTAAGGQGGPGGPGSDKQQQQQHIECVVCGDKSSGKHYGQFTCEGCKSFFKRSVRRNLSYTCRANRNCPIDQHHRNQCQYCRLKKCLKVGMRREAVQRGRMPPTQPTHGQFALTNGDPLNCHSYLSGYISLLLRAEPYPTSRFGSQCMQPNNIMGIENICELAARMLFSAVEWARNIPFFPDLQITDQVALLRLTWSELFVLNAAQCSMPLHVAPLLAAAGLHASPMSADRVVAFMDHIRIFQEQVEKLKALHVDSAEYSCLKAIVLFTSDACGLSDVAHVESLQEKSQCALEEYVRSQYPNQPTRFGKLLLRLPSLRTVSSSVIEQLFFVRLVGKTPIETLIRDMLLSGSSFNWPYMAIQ
Chain of Galanin receptor type 3 (O60755 whole entry): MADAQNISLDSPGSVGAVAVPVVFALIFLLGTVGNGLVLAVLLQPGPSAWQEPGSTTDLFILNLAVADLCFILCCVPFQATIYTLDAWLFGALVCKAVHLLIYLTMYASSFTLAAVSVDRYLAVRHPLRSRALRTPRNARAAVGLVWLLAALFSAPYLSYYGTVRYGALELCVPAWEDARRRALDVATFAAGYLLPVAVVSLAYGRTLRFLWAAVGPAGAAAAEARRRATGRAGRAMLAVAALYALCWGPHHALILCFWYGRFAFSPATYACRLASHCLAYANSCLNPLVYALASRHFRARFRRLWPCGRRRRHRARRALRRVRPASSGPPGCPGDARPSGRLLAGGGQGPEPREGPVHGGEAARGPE
Chain of Caspase-7 (P55210 24-198 limits assumed): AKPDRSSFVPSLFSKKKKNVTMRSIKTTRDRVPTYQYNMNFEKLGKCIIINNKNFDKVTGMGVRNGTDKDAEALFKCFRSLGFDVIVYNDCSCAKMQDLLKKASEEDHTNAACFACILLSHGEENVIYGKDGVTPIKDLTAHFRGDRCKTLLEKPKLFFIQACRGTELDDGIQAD
Chain of Caspase-7 (P55210 207-303 limits assumed): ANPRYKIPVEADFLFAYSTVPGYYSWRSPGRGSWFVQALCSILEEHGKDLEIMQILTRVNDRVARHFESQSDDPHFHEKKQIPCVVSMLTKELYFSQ

## COc1ccccc1N1C(C)=CC(=Cc2sc3ccccc3[n+]2C)C=C1C
[1]
  EC50: 3.07 µM (inconclusive)
[2]
  EC50: 2.54 µM (active)
[3]
  EC50: 3.16 µM (inconclusive)
[4]
  EC50: 6.24 µM (active)
[5]
  IC50: 0.128 µM (active)
[6]
  EC50: > 29.9 µM (inactive)
[7]
  IC50: 0.617 µM (active)

## Cc1ccc(NC(=O)Cn2ncc(Cl)c(Cl)c2=O)cc1S(=O)(=O)N1CCCCC1
[8]
  AC50: 13.7 µM (active)
[9]
  IC50: 2.88 µM (active)
[10]
  AC50: 4.58 µM (active)
[11]
  AC50: 7.27 µM (active)

## Cn1nnnc1Sc1ncnc2scc(-c3cc4ccccc4o3)c12
[12]
  CC50: 7.67 µM (active)
[13]
  AC50: 1.41 µM (active)
[14]
  AC50: 6 µM (active)
[10]
  AC50: 3.12 µM (active)
[11]
  AC50: 4.29 µM (active)
[15]
  AC50: 8.38 µM (active)
[16]
  AC50: 7.37 µM (active)
[17]
  AC50: 4.7 µM (active)
[18]
  AC50: 4.18 µM (active)
[19]
  AC50: 7.82 µM (active)

## COc1cc(N(C(C)=O)c2ccc(O)c(C(=O)O)c2)c2ncccc2c1
[20]
  IC50: 7.7 µM (active)
[21]
  IC50: 9.87 µM (active)
[22]
  AC50: 3.48 µM (active)
[23]
  AC50: 45.4 µM (active)
[24]
  AC50: 6.27 µM (active)
[25]
  AC50: 20.1 µM (active)
[26]
  AC50: 49.5 µM (active)
[27]
  AC50: 13.8 µM (active)

Reference: ChEMBL document CHEMBL1201862, “PubChem BioAssay data set” (2004)
